Data reported in patent publication US4352803A, “Novel naphthyridine derivatives, intermediates thereof, processes for preparation thereof, and use thereof” (Dainippon Pharmaceutical Co., Ltd., priority 1978, dated 1982).
Values after ≈ are worked out from the molar mass of the structure shown.

Legend:
[1] = system: Salmonella enteritidis No. 1891; test: In vitro antibacterial activity (MIC), Salmonella enteritidis No. 1891; format: cell-based; settings: Salmonella enterica; Salmonella enteritidis No. 1891; read-out: minimum inhibitory concentration (MIC)
Excerpt: (§1) (MIC) (μg/ml) Method; Chemotherapy, 22(6), 1126 (1974)

[2] = system: Klebsiella pneumoniae No. 13; test: In vitro antibacterial activity (MIC), Klebsiella pneumoniae No. 13; format: cell-based; settings: Klebsiella pneumoniae No. 13; read-out: minimum inhibitory concentration (MIC)
Excerpt: as §1

[3] = system: Staphylococcus aureus No. 50774; test: in vivo efficacy against systemic infection in mice, Staphylococcus aureus No. 50774; settings: NO.50774, in Mus musculus, po, 336 h
Experimental: Male mice (ddY) weighing about 20 g
Intravenous infection with (about
5 × 10^8 cells/mouse) of a bacterial
(§2) Twice, about 5 minutes and 6 hours after infection.

[4] = system: Escherichia coli P-5101; test: in vivo efficacy against systemic infection in mice, Escherichia coli P-5101; settings: P5101, in Mus musculus, po, 168 h
Experimental: Male mice (ddY) weighing about 20 g
Intraperitoneal infection with (about
9 × 10^6 cells/mouse) of a bacterial
(§3) suspension in trypto-soy broth with 4% mucin.
as §2

[5] = system: Pseudomonas aeruginosa No. 12; test: in vivo efficacy against systemic infection in mice, Pseudomonas aeruginosa No. 12; settings: NO.12, in Mus musculus, po, 168 h
Experimental: Male mice (ddY) weighing about 20 g
(3) Pseudomonas aeruginosa No. 12;
(about 5 × 10^3 cells/mouse) of a bacterial
as §3, §2
The numerals in the table show ED50 (mg/kg). ED50 values were

[6] = system: Corynebacterium pyogenes C-21; test: In vitro antibacterial activity (MIC), Corynebacterium pyogenes C-21; format: cell-based; settings: Rhodococcus (subgen. Prescottella) equi, C21; Corynebacterium pyogenes C-21; read-out: minimum inhibitory concentration (MIC)
Excerpt: as §1

[7] = system: Pseudomonas aeruginosa No. 12; test: in vivo efficacy on the ascending kidney infection in mice; set-up: species or system mice (ddY-S); settings: 120 h; ascending kidney infection with Pseudomonas aeruginosa No. 12; po; mice
Experimental: Female mice (ddY-S) weighing 22 to 30 g were anesthetized by intravenous injection of sodium pentobarbital at a dose of 50 mg/kg. Through a small suprapubic incision, the urinary bladder was exposed and then infected by injecting 0.1 ml of a 1:10,000 dilution of Pseudomonas aeruginosa No. 12 cultured for 20 hours in trypto-soy broth, using 0.25 ml syringe with 0.25 mm needle. The mice were restrained from drinking water for a period from 1 day before to 1 day after the infection and treated twice a day for 3 days starting on the day of infection. On the 5th day after infection, the kidneys were harvested for the detection of the bacteria, transversely bisected and stamped on King A Agar, which were incubated at 37° C. overnight. No bacterial finding in the kidneys was regarded as protected from the ascending kindey infection. ED50 values were calculated by probit analysis.

[8] = system: Pseudomonas aeruginosa No. 12; test: In vitro antibacterial activity (MIC), Pseudomonas aeruginosa No. 12; format: cell-based; settings: Pseudomonas aeruginosa No. 12; read-out: minimum inhibitory concentration (MIC)
Excerpt: as §1

[9] = system: Escherichia coli P-140a; test: In vitro antibacterial activity (MIC), Escherichia coli P-140a; format: cell-based; settings: P140A; Escherichia coli P-140a; read-out: minimum inhibitory concentration (MIC)
Excerpt: as §1

[10] = Urinary excretion in dogs; format: in vivo, Beagle dogs; settings: dog, urine, po, 25 mg/kg, urine pooled over 24 hours, oral 25 mg/kg
[11] = system: Streptococcus faecalis P-2473; test: In vitro antibacterial activity (MIC), Streptococcus faecalis P-2473; format: cell-based; settings: Enterococcus faecalis, P2473; Streptococcus faecalis P-2473; read-out: minimum inhibitory concentration (MIC)
Excerpt: as §1

[12] = system: Staphylococcus aureus 209P JC-1; test: In vitro antibacterial activity (MIC), Staphylococcus aureus 209P JC-1; format: cell-based; settings: Staphylococcus aureus 209P JC-1; read-out: minimum inhibitory concentration (MIC)
Excerpt: as §1

[13] = system: Staphylococcus aureus No. 50774; test: In vitro antibacterial activity (MIC), Staphylococcus aureus No. 50774; format: cell-based; settings: Staphylococcus aureus No. 50774; read-out: minimum inhibitory concentration (MIC)
Excerpt: as §1

[14] = in vivo; settings: mouse, in vivo, po
Experimental: The number of dead mice was counted after 7 days, and the value of median lethal dose (LD50, mg/kg) was calculated in accordance with the Behrens-Kaerber method.

[15] = system: Proteus morganii Kono; test: In vitro antibacterial activity (MIC), Proteus morganii Kono; format: cell-based; settings: Morganella morganii; Proteus morganii Kono; read-out: minimum inhibitory concentration (MIC)
Excerpt: as §1

[16] = Plasma level in dogs; format: in vivo, Beagle dogs; settings: dog, plasma
Experimental: Two male Beagle dogs weighing 12 kg each were orally given a capsule containing one of compounds 1 and 2 at a dose of 25 mg/kg with 200 ml of milk respectively. Blood samples were taken by venipuncture from the two dogs at each 0.5, 1, 2, 3, 6, 8 and 10 hours after administration, and centrifuged individually to separate the plasma.
Drug levels were determined by the thin-layer cup-plate method using Escherichia coli Kp as an indicator organism.

[17] = system: Shigella flexneri 2a; test: In vitro antibacterial activity (MIC), Shigella flexneri 2a; format: cell-based; settings: read-out: minimum inhibitory concentration (MIC)
Excerpt: as §1

[18] = system: Serratia marcescens IFC 3736; test: In vitro antibacterial activity (MIC), Serratia marcescens IFC 3736; format: cell-based; settings: IFC3736; Serratia marcescens IFC 3736; read-out: minimum inhibitory concentration (MIC)
Excerpt: as §1

[19] = system: Streptococcus pyogenes 65A; test: In vitro antibacterial activity (MIC), Streptococcus pyogenes 65A; format: cell-based; settings: Streptococcus pyogenes 65A; read-out: minimum inhibitory concentration (MIC)
Excerpt: as §1

[20] = system: Salmonella typhimurium 8-9; test: In vitro antibacterial activity (MIC), Salmonella typhimurium 8-9; format: cell-based; settings: Salmonella enterica; Salmonella typhimurium 8-9; read-out: minimum inhibitory concentration (MIC)
Excerpt: as §1

[21] = system: Escherichia coli NIHJ JC-2; test: In vitro antibacterial activity (MIC), Escherichia coli NIHJ JC-2; format: cell-based; settings: NIHJJC2; Escherichia coli NIHJ JC-2; read-out: minimum inhibitory concentration (MIC)
Excerpt: as §1

[22] = system: Escherichia coli P-5101; test: In vitro antibacterial activity (MIC), Escherichia coli P-5101; format: cell-based; settings: P5101; Escherichia coli P-5101; read-out: minimum inhibitory concentration (MIC)
Excerpt: as §1

[23] = system: Shigella flexneri 4a P-330; test: In vitro antibacterial activity (MIC), Shigella flexneri 4a P-330; format: cell-based; settings: 4AP330, read-out: minimum inhibitory concentration (MIC)
Excerpt: as §1

[24] = system: Pseudomonas aeruginosa Tsuchijima; test: In vitro antibacterial activity (MIC), Pseudomonas aeruginosa Tsuchijima; format: cell-based; settings: Pseudomonas aeruginosa Tsuchijima; read-out: minimum inhibitory concentration (MIC)
Excerpt: as §1

[25] = system: Enterobacter cloacae P-2540; test: In vitro antibacterial activity (MIC), Enterobacter cloacae P-2540; format: cell-based; settings: P2540; Enterobacter cloacae P-2540; read-out: minimum inhibitory concentration (MIC)
Excerpt: as §1

[26] = system: Proteus mirabilis P-2381; test: In vitro antibacterial activity (MIC), Proteus mirabilis P-2381; format: cell-based; settings: P2381; Proteus mirabilis P-2381; read-out: minimum inhibitory concentration (MIC)
Excerpt: as §1

**Q.** For `CCn1cc(C(=O)O)c(=O)c2cc(F)c(N3CCNCC3)nc21` [Compound 1], which MIC [1] is on record?
**A.** Its MIC is 0.1 µg/mL (≈ 0.312 µM).

**Q.** What about the MIC [2] of the same molecule?
**A.** Its MIC is 0.2 µg/mL (≈ 0.624 µM).

**Q.** What about the ED50 [3] of the same molecule?
**A.** The ED50 was 10 mg/kg.

**Q.** And the ED50 [4]?
**A.** Its ED50 is 1.8 mg/kg.

**Q.** What about the ED50 [5] of the same molecule?
**A.** Its ED50 is 9 mg/kg.

**Q.** And the MIC [6]?
**A.** Its MIC is 1.56 µg/mL (≈ 4.87 µM).

**Q.** What about the ED50 [7] of the same molecule?
**A.** The ED50 was 2.4 mg/kg.

**Q.** And the MIC [8]?
**A.** Its MIC is 0.78 µg/mL (≈ 2.44 µM).

**Q.** What about the MIC [9] of the same molecule?
**A.** The MIC was 0.2 µg/mL (≈ 0.624 µM).

**Q.** And the concentration at 24 h [10]?
**A.** Its concentration at 24 h is 606000 ng/mL.

**Q.** And the dose excreted at 24 h ([10]; read-out: urinary recovery)?
**A.** The dose excreted at 24 h was 40.7%.

**Q.** What about the MIC [11] of the same molecule?
**A.** Its MIC is 12.5 µg/mL (≈ 39 µM).

**Q.** And the MIC [12]?
**A.** Its MIC is 0.78 µg/mL (≈ 2.44 µM).

**Q.** What about the MIC [13] of the same molecule?
**A.** The MIC was 0.78 µg/mL (≈ 2.44 µM).

**Q.** What about the LD50 at 168 h [14] of the same molecule?
**A.** Its LD50 at 168 h is over 4000 mg/kg.

**Q.** And the MIC [15]?
**A.** The MIC was 0.2 µg/mL (≈ 0.624 µM).

**Q.** What about the concentration at 0.5 h ([16]; 0.5 hr after oral 25 mg/kg, nd: nondetective) of the same molecule?
**A.** Its concentration at 0.5 h is 600 ng/mL.

**Q.** What about the concentration at 1 h ([16]; 1 hr after oral 25 mg/kg, nd: nondetective) of the same molecule?
**A.** The concentration at 1 h was 2400 ng/mL.

**Q.** What about the concentration at 2 h ([16]; 2 hr after oral 25 mg/kg) of the same molecule?
**A.** The concentration at 2 h was 5500 ng/mL.

**Q.** What about the concentration at 3 h ([16]; 3 hr after oral 25 mg/kg) of the same molecule?
**A.** The concentration at 3 h was 5900 ng/mL.

**Q.** And the concentration at 6 h ([16]; 6 hr after oral 25 mg/kg)?
**A.** Its concentration at 6 h is 4200 ng/mL.

**Q.** What about the concentration at 8 h ([16]; 8 hr after oral 25 mg/kg) of the same molecule?
**A.** The concentration at 8 h was 3700 ng/mL.

**Q.** What about the concentration at 10 h ([16]; 10 hr after oral 25 mg/kg) of the same molecule?
**A.** Its concentration at 10 h is 2400 ng/mL.

**Q.** What about the MIC [17] of the same molecule?
**A.** Its MIC is 0.2 µg/mL (≈ 0.624 µM).

**Q.** What about the MIC [18] of the same molecule?
**A.** Its MIC is 0.39 µg/mL (≈ 1.22 µM).

**Q.** What about the MIC [19] of the same molecule?
**A.** Its MIC is 12.5 µg/mL (≈ 39 µM).

**Q.** And the MIC [20]?
**A.** The MIC was 0.1 µg/mL (≈ 0.312 µM).

**Q.** What about the MIC [21] of the same molecule?
**A.** Its MIC is 0.2 µg/mL (≈ 0.624 µM).

**Q.** What about the MIC [22] of the same molecule?
**A.** The MIC was 0.1 µg/mL (≈ 0.312 µM).

**Q.** What about the MIC [23] of the same molecule?
**A.** Its MIC is 0.39 µg/mL (≈ 1.22 µM).

**Q.** And the MIC [24]?
**A.** Its MIC is 0.39 µg/mL (≈ 1.22 µM).

**Q.** What about the MIC [25] of the same molecule?
**A.** The MIC was 0.2 µg/mL (≈ 0.624 µM).

**Q.** And the MIC [26]?
**A.** The MIC was 0.39 µg/mL (≈ 1.22 µM).
